The values below come from patent US20240261272A1, “LPA1 ANTAGONISTS FOR TREATING INTERSTITIAL LUNG DISEASE” (Bristol-Myers Squibb Company, priority 2022, published 2024).

Each structure is given as a SMILES string.

Series [1] in a line: Phase 1 Part C MAD study in healthy Japanese participants: blood pressure. Format: in vivo, human. Particulars: for Maximum of Mean (±SD) Reduction in DBP from Baseline (Baseline): MAD Japanese Part C. As for the experimental part:
The study was performed in 3 parts in 112 healthy male and female participants, including 24 Japanese participants. Female participants were to be not of childbearing potential. The present study was designed to evaluate the safety and tolerability, PK, and exploratory PD of an oral suspension of Compound A. Parts A and B (Cohort B1 only) enrolled healthy participants and was conducted at a site in The Netherlands and Part B (Cohort B2 to B5) enrolled healthy non-Japanese participants and was conducted at a site in the United Kingdom (UK). Part C enrolled healthy Japanese participants and was conducted at the same site in the UK.
Part C was a MAD study in 3 sequential dose escalation cohorts (30 mg BID, 60 mg BID, and 90 mg BID) of 8 healthy Japanese participants (6 active+2 placebo) each. Eligible participants in Cohorts C1 to C3 received study drug (Compound A or placebo) administered orally for 14 days.
Physical examinations, vital sign measurements (including orthostasis testing in Cohort A6, Cohort B3 to B5, and C1 to C3 at selected time points), 12-lead electrocardiogram (ECG), and clinical laboratory evaluations were performed at selected times throughout the study. In addition, Holter monitoring was performed for the first 24 hours post dose on Day 1 in Part A (not in FE/pH cohort), and also for the first 24 hours post dose on Day 1 and Day 14 in Parts B and C. Participants were closely monitored for adverse events (AEs). Blood samples were collected for up to 14 days (follow-up visit) after (last) study drug administration for PK analysis. In addition, blood and urine were collected for exploratory biomarker assessments and for biobanking of samples for potential analyses. Urine was collected for potential PK analysis for up to 96 hours after a single dose of Compound A or placebo was administered in the SAD part, and for up to 24 hours after the first (morning) dose of study drug on Day 1 and for up to 24 hours after the last (morning) dose of study drug on Day 14 in the MAD parts.

The subject of the next series is participants with IPF. As to the kind of experiment: Phase 2 study, IPF cohort: efficacy (rate of change in ppFVC, FVC). The class given is in vivo, human. Particulars: for relative treatment benefit compared to PBO (ppFVC) / relative reduction in rate of decline in ppFVC compared to PBO: 60 mg; for relative reduction in rate of decline in ppFVC compared to PBO: overall. As for the experimental part: A total of 278 participants with IPF were randomized and 276 participants were treated as of the final analyses data cut-off (4 Aug. 2022). Male and female participants ≥40 years of age with IPF and percent predicted forced vital capacity (ppFVC)≥40% and percent predicted DLCO (ppDLCO)≥25%; diagnosed within 7 years of screening; having a centrally-read chest HRCT obtained at screening that was consistent with UIP or probable UIP, or having a lung biopsy consistent with UIP, were eligible to enter the study. The mean baseline ppFVC for all subjects was 76.5%. In the primary IPF cohort, participants were randomized (1:1:1) to receive 30 mg or 60 mg Compound A or placebo (PBO) twice daily for 26 weeks. Participants were stratified by standard of care (SoC) IPF therapy (pirfenidone versus nintedanib versus none) and region (Japan versus Rest of World) at randomization.
The primary objective of the study was to determine the rate of change in ppFVC from baseline to Week 26. The primary objective was evaluated with a two estimand framework to handle the intercurrent event of dose reduction to 10 mg BID or matching PBO when pre-specified low BP criteria is met. The primary estimand is adopted to estimate treatment effect when dose reduction is implemented. The supplementary estimand is adopted to estimate the effect of treatment without dose reduction.
Analysis Strategy: The primary estimand was to evaluate the efficacy of Compound A at 30 mg or 60 mg twice daily, compared to PBO in IPF participants who met the enrollment criteria, with or without use of SoC. The rate of decline in ppFVC (%) from baseline to Week 26 was compared using the difference between each dose and PBO as a population level summary regardless of dose reduction or treatment discontinuation for any reason (treatment policy strategy).
Analysis Strategy: The supplementary estimand for the primary objective is to evaluate the efficacy of Compound A at 30 mg or 60 mg twice daily without dose reduction, compared to the PBO in IPF subjects who met the enrollment criteria, with or without use of SoC. The rate of decline in ppFVC (%) from baseline to Week 26 has been compared using the difference between each dose and PBO as a population level summary regardless of treatment discontinuation for any reason (treatment policy strategy). In the event of dose reduction, data collected after dose reduction will not be considered relevant to the treatment effect of interest and therefore, will be treated as missing (while-on-treatment strategy).

Consider `CCCN(C)C(=O)OCc1c(-c2ccc(O[C@H]3CCC[C@H](C(=O)O)C3)c(C)n2)nnn1C` [Compound A, (1S,3S)-3-((2-methyl-6-(1-methyl-5-(((methyl(propyl)carbamoyl)-oxy)methyl)-1H-1,2,3-triazol-4-yl)pyridin-3-yl)oxy)cyclohexane-1-carboxylic acid], for which the “BP reduction dose dependence (in words)” value in series [1] (Japanese MAD cohorts) is listed as “no clear Compound A dose-dependent BP reduction trend”. Also, the “Maximum of Mean (±SD) Reduction in DBP from Baseline (Baseline)” value was 8.8 ± 5.12 mmHg in series [1] (30 mg BID (C1)), 8.2 ± 10.40 mmHg in series [1] (60 mg BID (C2)) and 8.0 ± 8.22 mmHg in series [1] (90 mg BID (C2)). For the same molecule, the “efficacy compared to PBO (in words)” value in the series with participants with IPF (30 mg dose group, Week 26) is “did not demonstrate efficacy”. Also, the “treatment response versus PBO (in words)” value in the series with participants with IPF (60 mg dose group, Week 26, ppFVC and FVC (mL)) was “favorable treatment responses”. Also, the “relative treatment benefit compared to PBO (ppFVC)” value in the series with participants with IPF (not on background SoC, primary estimand) was found to be 113%; with participants with IPF (not on background SoC, supplementary estimand), 123%; in the series on participants with IPF (on background SoC, primary estimand), 39%; in the series with participants with IPF (on background SoC, supplementary estimand), 44%. Also, the “relative reduction in rate of decline in ppFVC compared to PBO” value in the series on participants with IPF (primary estimand) turned out to be 54%; in the series on participants with IPF (supplementary estimand), 62%.
